In patent publication US10316017B2, “COT modulators and methods of use thereof” (Gilead Sciences, Inc., priority 2015, dated 2019):
Like-named read-outs stand apart in the source and are kept apart here.

How the values were obtained:
[1] = test system: TNFα production in LPS-stimulated human monocytes; assay: Cot Monocyte TNFα Cell Based Assay; conditions: read-out: EC50 TNF
Outline: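 Human monocytes (5,000 cells/well) pretreated with compound for 1 hour at 37° C (0.5% DMSO), then stimulated with 50 pg/ml LPS for 4 hours. Total TNFα measured by TR-FRET after overnight antibody incubation at room temp, expressed as percent of control between unstimulated and stimulated cells.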

[2] = target: T1, human Cot catalytic domain (30-397 amino acids) (Homo sapiens, UniProt P41279); assay: High Throughput Cot Biochemical Assay (KinEASE TR-FRET); conditions: read-out: IC50 HTRF
T1 construct: Purified recombinant human Cot catalytic domain (30-397 amino acids) was purchased from Cama Biosciences; purchased Cama Biosciences (so in the source)
Outline: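 Recombinant human Cot catalytic domain (aa 30-397), 5 nM, with 1 μM STK3 peptide and 400 μM ATP in MOPS pH 7.0 buffer with MgOAc, DTT, BSA, NP-40, glycerol, 0.1% DMSO. Phosphorylated XL665-peptide detected by Eu-[…] antibody TR-FRET.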

[3] = Homo sapiens, Monocyte, TNFα in LPS-stimulated human monocytes
[4] = Cot KinEASE TR-FRET (HTRF) biochemical assay, 400 μM ATP
[5] = Cot biochemical HTRF (KinEASE TR-FRET) assay
[6] = Homo sapiens, Monocyte, LPS-stimulated human monocytes, TNFα TR-FRET
[7] = Cot KinEASE TR-FRET, 400 μM ATP

T1 sequence (P41279 30-397): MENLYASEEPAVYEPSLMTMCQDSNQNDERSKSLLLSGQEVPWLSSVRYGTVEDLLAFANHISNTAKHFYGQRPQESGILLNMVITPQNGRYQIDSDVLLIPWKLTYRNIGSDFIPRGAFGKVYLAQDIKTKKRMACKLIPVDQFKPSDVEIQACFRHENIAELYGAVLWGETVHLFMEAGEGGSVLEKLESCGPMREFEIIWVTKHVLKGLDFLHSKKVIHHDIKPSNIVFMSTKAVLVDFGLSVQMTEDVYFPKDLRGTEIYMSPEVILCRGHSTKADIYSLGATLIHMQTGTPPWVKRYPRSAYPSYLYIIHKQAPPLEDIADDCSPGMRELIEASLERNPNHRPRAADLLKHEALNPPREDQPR

| EC50 [1, 3] [nM] | IC50 [2, 5] [nM] | Compound | also measured |
| --- | --- | --- | --- |
| 1960 | – | [2H]C(Nc1cc(Cl)c2ncc(C#N)c(N[C@H](CC)c3ccccc3)c2c1)(c1ccccc1Cl)c1nn[nH]c1C (stereo partly drawn) [Example 326, 8-chloro-6-(((2-chlorophenyl) (5-methyl-1H-1,2,3-triazol-4-yl)methyl-d)amino)-4-(((R)-1-phenylpropyl)amino)quinoline-3-carbonitrile] | IC50 [2, 4]: 199 nM |
| 8880 | 316 | CC[C@@H](Nc1c(C#N)cnc2c(Cl)cc(N[C@@H](c3cccc(F)c3F)c3cnnn3C(F)F)cc12)c1ccccc1 [Example 427, 8-chloro-6-(((S)-(1-(difluoromethyl)-1H-1,2,3-triazol-5-yl)(2,3-difluorophenyl)methyl)amino)-4-(((R)-1-phenylpropyl)amino) quinoline-3-carbonitrile] | – |
| 5290 | 1690 | CC(C)(C)N1CCC(n2cc([C@@H](Nc3cc(Cl)c4ncc(C#N)c(N[C@@H]5CCOc6ccccc65)c4c3)c3ccccc3)nn2)CC1 [Example 506, 6-(((S)-(1-(1-(tert-butyl)piperidin-4-yl)-1H-1,2,3-triazol-4-yl)(phenyl)methyl)amino)-8-chloro-4-(((R)-chroman-4-yl)amino)quinoline-3-carbonitrile] | – |
| 8510 | 741 | CC(C)(C)N1CCC(n2cc([C@@H](Nc3cc(Cl)c4ncc(C#N)c(N[C@H]5CCOc6ccccc65)c4c3)c3ccccc3)nn2)CC1 [Example 507, 6-(((S)-(1-(1-(tert-butyl)piperidin-4-yl)-1H-1,2,3-triazol-4-yl)(phenyl)methyl)amino)-8-chloro-4-(((S)-chroman-4-yl)amino)quinoline-3-carbonitrile] | – |
| 41 | 1 | CN(C)C(=O)c1cccc([C@H](Nc2cc(Cl)c3ncc(C#N)c(Nc4cccc(Cl)c4F)c3c2)c2cn(C3CCN(C(C)(C)C)CC3)nn2)c1 [Example 608, (S)-3-((1-(1-(tert-butyl)piperidin-4-yl)-1H-1,2,3-triazol-4-yl)((8-chloro-4-((3-chloro-2-fluorophenyl)amino)-3-cyanoquinolin-6-yl)amino)methyl)-N,N-dimethylbenzamide] | – |
| 570 | 34 | N#Cc1cnc2c(Cl)cc(N[C@H](c3c[nH]nn3)c3ccccc3C(F)F)cc2c1Nc1cnc(F)c(F)c1 [Example 404, (S)-8-chloro-6-(((2-(difluoromethyl)phenyl) (1H-1,2,3-triazol-4-yl)methyl)amino)-4-((5,6-difluoropyridin-3-yl)amino)quinoline-3-carbonitrile] | – |
| 1610 | 97 | CC(C)(C)C(=O)OCn1cc([C@@H](Nc2cc(Cl)c3ncc(C#N)c(Nc4ccc(F)c(Cl)c4)c3c2)c2ccccc2)nn1 [Example 668, (S)-(4-(((8-chloro-4-((3-chloro-4-fluorophenyl)amino)-3-cyanoquinolin-6-yl)amino)(phenyl)methyl)-1H-1,2,3-triazol-1-yl)methyl pivalate] | – |
| 674 | – | [2H][C@](Nc1cc(Cl)c2ncc(C#N)c(NN3CCCCC3)c2c1)(c1ccc(F)cc1)c1cn(C2CC2)nn1 [Example 178, (S)-8-chloro-6-(((1-cyclopropyl-1H-1,2,3-triazol-4-yl)(4-fluorophenyl)methyl-d)amino)-4-(piperidin-1-ylamino) quinoline-3-carbonitrile] | IC50 [2, 4]: 110 nM |
| – | – | Cc1c([C@H](Nc2cc(C#N)c3ncc(C#N)c(NCC(C)(C)C)c3c2)c2cn(C3(C(F)(F)F)CC3)nn2)cccc1-n1cccn1 [Example 1045, (S)-6-(((2-methyl-3-(1H-pyrazol-1-yl)phenyl)(1-(1-(trifluoromethyl)cyclopropyl)-1H-1,2,3-triazol-4-yl)methyl)amino)-4-(neopentylamino)quinoline-3,8-dicarbonitrile] | EC50 [1, 6]: 268 nM; IC50 [2, 7]: 5 nM |
| 934 | 41 | CC(C)(C)N1CCC(n2cc([C@@H](Nc3cc(Cl)c4ncc(C#N)c(Nc5cnc(Cl)c(F)c5)c4c3)c3ccccc3)nn2)CC1 [Example 521, (S)-6-(((1-(1-(tert-butyl)piperidin-4-yl)-1H-1,2,3-triazol-4-yl)(phenyl)methyl)amino)-8-chloro-4-((6-chloro-5-fluoropyridin-3-yl)amino)quinoline-3-carbonitrile] | – |
| > 1000 | 6300 | Cn1cc(C(Nc2cc(Cl)c3ncc(C#N)c(Nc4ccc(F)c(Cl)c4)c3c2)c2ccc(F)cc2)cn1 (centres unmarked) [Example 853, 8-chloro-4-((3-chloro-4-fluorophenyl)amino)-6-(((4-fluorophenyl)(1-methyl-1H-pyrazol-4-yl)methyl)amino)quinoline-3-carbonitrile] | – |
| – | – | Cc1c(C#N)cccc1[C@H](Nc1cc(Cl)c2ncc(C#N)c(NCC(C)(C)C(F)(F)F)c2c1)c1cn(C23CC(C2)C3)nn1 [Example 1107, (S)-6-(((1-(bicyclo[1.1.1]pentan-1-yl)-1H-1,2,3-triazol-4-yl)(3-cyano-2-methylphenyl)methyl)amino)-8-chloro-4-((3,3,3-trifluoro-2,2-dimethylpropyl)amino) quinoline-3-carbonitrile] | EC50 [1, 6]: 65 nM; IC50 [2, 7]: 3 nM |
| 62 | 2 | CCN1CC[C@@H](n2cc([C@@H](Nc3cc(Cl)c4ncc(C#N)c(Nc5ccc(F)c(Cl)c5)c4c3)c3ccccc3)nn2)[C@H](O)C1 [Example 514, 8-chloro-4-((3-chloro-4-fluorophenyl)amino)-6-(((S)-(1-((3R,4R)-1-ethyl-3-hydroxypiperidin-4-yl)-1H-1,2,3-triazol-4-yl)(phenyl)methyl)amino) quinoline-3-carbonitrile] | – |
| 93 | – | [2H][C@](Nc1cc(Cl)c2ncc(C#N)c(Nc3cnc(F)c(F)c3)c2c1)(c1cccc(C#N)c1)c1cn(C2CC2)nn1 [Example 369, (S)-8-chloro-6-(((3-cyanophenyl)(1-cyclopropyl-1H-1,2,3-triazol-4-yl)methyl-d)amino)-4-((5,6-difluoropyridin-3-yl)amino)quinoline-3-carbonitrile] | IC50 [2, 4]: 4 nM |
| – | 2960 | N#Cc1cnc2c(Cl)cc(N[C@@H](c3ccc(F)cc3)c3c[nH]nn3)cc2c1NC1CCCC(O)C1 (stereo partly drawn) [Example 439, 8-chloro-6-(((S)-(4-fluorophenyl)(1H-1,2,3-triazol-4-yl)methyl)amino)-4-((3-hydroxycyclohexyl)amino) quinoline-3-carbonitrile] | EC50 ([1]; TNFα in LPS-stimulated human monocytes): > 10000 nM |
| – | – | CC(C)(C)CNc1c(C#N)cnc2c(F)cc(N[C@H](c3cn(C4(C(N)=O)CC4)nn3)c3ccccc3Cl)cc12 [Example 999, (S)-1-(4-((2-chlorophenyl)((3-cyano-8-fluoro-4-(neopentylamino)quinolin-6-yl)amino)methyl)-1H-1,2,3-triazol-1-yl)cyclopropane-1-carboxamide] | EC50 [1, 6]: 306 nM; IC50 [2, 7]: 63 nM |
| 6630 | 173 | CC(C)(C)N1CCC(n2cc([C@@H](Nc3cc(Cl)c4ncc(C#N)c(Nc5ccc(OCc6ccccn6)c(Cl)c5)c4c3)c3ccccc3)nn2)CC1 [Example 786, (S)-6-(((1-(1-(tert-butyl)piperidin-4-yl)-1H-1,2,3-triazol-4-yl)(phenyl)methyl)amino)-8-chloro-4-((3-chloro-4-(pyridin-2-ylmethoxy)phenyl)amino)quinoline-3-carbonitrile] | – |
| 423 | 10 | CC(C)[C@@H](Nc1c(C#N)cnc2c(Cl)cc(N[C@@H](c3ccccc3)c3cn(C4CCN(C(C)(C)C)CC4)nn3)cc12)c1ccccc1 [Example 553, 6-(((S)-(1-(1-(tert-butyl)piperidin-4-yl)-1H-1,2,3-triazol-4-yl)(phenyl)methyl)amino)-8-chloro-4-(((R)-2-methyl-1-phenylpropyl)amino)quinoline-3-carbonitrile] | – |
| 305 | 8 | CN(C)c1cccc([C@H](Nc2cc(Cl)c3ncc(C#N)c(Nc4ccc(F)c(Cl)c4)c3c2)c2cn(C3CCN(C(C)(C)C)CC3)nn2)c1 [Example 595, (S)-6-(((1-(1-(tert-butyl)piperidin-4-yl)-1H-1,2,3-triazol-4-yl)(3-(dimethylamino)phenyl)methyl)amino)-8-chloro-4-((3-chloro-4-fluorophenyl)amino)quinoline-3-carbonitrile] | – |
| 427 | 16 | Cc1ccccc1[C@@H](C)Nc1c(C#N)cnc2c(Cl)cc(N[C@@H](c3ccccc3)c3cn(C4CCN(C(C)(C)C)CC4)nn3)cc12 [Example 585, 6-(((S)-(1-(1-(tert-butyl)piperidin-4-yl)-1H-1,2,3-triazol-4-yl)(phenyl)methyl)amino)-8-chloro-4-(((R)-1-(o-tolyl)ethyl)amino)quinoline-3-carbonitrile] | – |
| > 10000 | – | [2H][C@](Nc1cc(C#C)c2ncc(C#N)c(N[C@H](CC)c3ccccc3)c2c1)(c1ccc(F)cc1)c1cn(C2CC2)nn1 [Compound 30] | IC50 [2, 4]: 7210 nM |

| Compound | EC50 [1, 3] [nM] | IC50 [2, 5] [nM] | also measured |
| --- | --- | --- | --- |
| C[Si](C)(C)Cn1cc([C@@H](Nc2cc(Cl)c3ncc(C#N)c(Nc4cnc(F)c(F)c4)c3c2)c2ccccc2F)nn1 [Example 431, (S)-8-chloro-4-((5,6-difluoropyridin-3-yl)amino)-6-(((2-fluorophenyl)(1-((trimethylsilyl)methyl)-1H-1,2,3-triazol-4-yl)methyl)amino)quinoline-3-carbonitrile] | – | 96 | EC50 ([1]; Homo sapiens, Monocyte): 3280 nM |
